Source: paper PMC11211886 (Frontiers in Pharmacology, 2024)
Where two headings read alike, the source gives them in different places.

Experiments:
OAT3 = target: T1, OAT3 (Homo sapiens, UniProt Q8TCC7); assay: OAT3 inhibition, estrone 3-sulfate uptake in transfected HEK293 cells
T1 sequence (Q8TCC7 1-542): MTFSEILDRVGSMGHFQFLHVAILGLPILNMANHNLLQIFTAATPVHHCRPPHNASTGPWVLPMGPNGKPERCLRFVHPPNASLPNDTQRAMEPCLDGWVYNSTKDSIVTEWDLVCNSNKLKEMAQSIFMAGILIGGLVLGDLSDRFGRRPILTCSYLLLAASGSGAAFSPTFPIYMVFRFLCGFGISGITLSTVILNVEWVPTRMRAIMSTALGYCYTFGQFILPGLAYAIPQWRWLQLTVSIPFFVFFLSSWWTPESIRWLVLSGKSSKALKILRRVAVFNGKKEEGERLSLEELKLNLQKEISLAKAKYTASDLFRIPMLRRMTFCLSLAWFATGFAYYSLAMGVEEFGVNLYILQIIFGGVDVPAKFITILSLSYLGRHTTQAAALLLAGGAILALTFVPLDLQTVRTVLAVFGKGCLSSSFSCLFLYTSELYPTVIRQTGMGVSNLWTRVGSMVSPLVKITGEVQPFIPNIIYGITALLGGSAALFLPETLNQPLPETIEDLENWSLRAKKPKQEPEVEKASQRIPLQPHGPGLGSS
Description: The pre-incubation solutions were removed, and incubation solutions containing the inhibitors and probe substrates (or transport buffer containing an equal volume of vehicle control and probe substrates) were added and incubated at 37°C for 2 min (5 min for OATP1B3). The probe substrate for OAT1 was 4-aminohippuric acid (10 μM), for OAT3 was estrone 3-sulfate (10 μM), for OCT2 was metformin (100 μM), for OATP1B1 was β-estradiol 17-(β-D-glucuronide) (5 μM), for OATP1B3 was β-estradiol 17-(β-D-glucuronide) (10 μM), and for MATE1 and MATE2-K was tetraethylammonium (10 μM). After incubation, cells were washed three times with ice-cold transport buffer (25 mM HEPES, pH 7.4, pH 8.0 for overexpressing MATE1 and MATE2-K HEK293 cells) and lysed in distilled water. The concentrations of probe substrates were determined by LC-MS/MS, and a BCA Kit (Solarbio ®Life Sciences, Beijing, China) was used to determine the protein content in the cell lysate.
where C is the concentration of the drug in the cell lysate (nM), P is the protein concentration of the cell lysate (mg/mL), and T is the incubation time (minute). Uptake ratetest compound is the uptake rate of the substrate in the presence of the test compound. Uptake ratevehicle control is the uptake rate of the substrate in the presence of the vehicle control. Uptake ratepassive is the uptake rate of the substrate in the presence of the positive inhibitor at the top test concentration.

P-gp = P-gp (Homo sapiens, UniProt P08183); assay: P-gp inhibition, digoxin transport across Caco-2 monolayers
Sequence of P-gp (P08183 whole entry): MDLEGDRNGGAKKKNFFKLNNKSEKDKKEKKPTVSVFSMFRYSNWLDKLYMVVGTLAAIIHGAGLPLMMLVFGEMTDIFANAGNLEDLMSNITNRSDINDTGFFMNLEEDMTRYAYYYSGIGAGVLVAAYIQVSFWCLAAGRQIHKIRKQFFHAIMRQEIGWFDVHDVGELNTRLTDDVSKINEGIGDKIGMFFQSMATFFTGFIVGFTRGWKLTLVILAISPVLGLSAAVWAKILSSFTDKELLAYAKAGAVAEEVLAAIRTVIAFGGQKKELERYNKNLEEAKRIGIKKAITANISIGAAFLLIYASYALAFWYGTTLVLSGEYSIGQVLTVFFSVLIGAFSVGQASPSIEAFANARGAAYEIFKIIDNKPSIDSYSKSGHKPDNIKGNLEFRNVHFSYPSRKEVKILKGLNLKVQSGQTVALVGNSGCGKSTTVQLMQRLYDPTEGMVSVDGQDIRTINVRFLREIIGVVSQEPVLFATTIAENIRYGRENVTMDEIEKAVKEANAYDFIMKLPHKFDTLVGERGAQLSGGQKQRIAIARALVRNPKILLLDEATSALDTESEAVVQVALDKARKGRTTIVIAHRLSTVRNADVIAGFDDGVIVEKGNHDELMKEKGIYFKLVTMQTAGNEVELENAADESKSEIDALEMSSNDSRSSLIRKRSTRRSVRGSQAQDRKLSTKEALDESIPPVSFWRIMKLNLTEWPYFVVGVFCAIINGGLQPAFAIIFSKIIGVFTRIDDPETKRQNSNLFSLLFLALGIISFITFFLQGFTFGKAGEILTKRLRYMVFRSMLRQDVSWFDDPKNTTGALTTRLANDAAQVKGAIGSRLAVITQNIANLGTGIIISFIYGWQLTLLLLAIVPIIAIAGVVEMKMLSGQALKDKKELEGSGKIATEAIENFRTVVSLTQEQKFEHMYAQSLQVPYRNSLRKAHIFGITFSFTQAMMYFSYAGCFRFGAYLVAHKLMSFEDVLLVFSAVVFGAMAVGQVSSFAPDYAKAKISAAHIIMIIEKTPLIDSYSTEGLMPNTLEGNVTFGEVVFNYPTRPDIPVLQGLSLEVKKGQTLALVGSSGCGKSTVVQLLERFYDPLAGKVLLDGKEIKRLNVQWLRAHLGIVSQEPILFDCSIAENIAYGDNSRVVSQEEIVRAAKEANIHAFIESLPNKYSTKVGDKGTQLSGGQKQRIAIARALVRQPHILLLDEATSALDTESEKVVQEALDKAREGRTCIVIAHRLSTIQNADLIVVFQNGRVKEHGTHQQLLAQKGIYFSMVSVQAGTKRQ
From the text: (§1) The experimental conditions were similar to those of the permeability study.

BCRP = target: T2, BCRP (Homo sapiens, UniProt Q9UNQ0); assay: in vitro; conditions: human
T2 sequence (Q9UNQ0 1-655): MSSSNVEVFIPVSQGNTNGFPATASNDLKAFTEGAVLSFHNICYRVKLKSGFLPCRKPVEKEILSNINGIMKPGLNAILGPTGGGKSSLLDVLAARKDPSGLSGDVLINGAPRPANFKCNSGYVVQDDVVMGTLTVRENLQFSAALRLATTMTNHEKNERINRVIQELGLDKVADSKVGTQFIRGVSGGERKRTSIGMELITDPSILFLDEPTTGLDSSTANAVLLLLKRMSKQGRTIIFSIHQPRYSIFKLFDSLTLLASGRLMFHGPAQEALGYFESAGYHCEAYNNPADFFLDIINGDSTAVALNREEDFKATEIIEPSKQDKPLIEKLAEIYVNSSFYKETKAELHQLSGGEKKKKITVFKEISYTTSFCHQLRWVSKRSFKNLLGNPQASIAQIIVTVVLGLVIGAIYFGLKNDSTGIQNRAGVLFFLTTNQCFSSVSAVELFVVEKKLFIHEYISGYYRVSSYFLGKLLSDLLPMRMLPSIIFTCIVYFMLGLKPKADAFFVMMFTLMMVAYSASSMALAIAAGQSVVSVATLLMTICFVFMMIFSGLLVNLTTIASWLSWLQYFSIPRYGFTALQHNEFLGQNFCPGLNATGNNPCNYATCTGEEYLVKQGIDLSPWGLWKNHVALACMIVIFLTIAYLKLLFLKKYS
From the text: as §1

[1] = Metabolic stability in mouse liver microsomes; type: in vitro ADME
Description: FMO was deactivated by heating liver microsomes at 45°C for 5 min. […] (1) metabolic clearance is the major mechanism of clearance; (2) liver is the major organ of clearance; and (3) oxidation is the major metabolic pathway. CLint,in vitro=k / Cmicrosomes , Scaled CLint,in vivo=CLint,in vitro×microsomes yield×liver weight, where Cmicrosomes means the experimental protein concentration (0.5 mg/mL) in the incubation system.

**Q.** Which results are given for `C[C@H](Nc1ncnc(N)c1C#N)c1cc2ncc(Cl)n2nc1-c1ccccc1` [Amdizalisib]?
**A.** IC50 (OAT3): 41.1 µM; Percentage transported (OAT3; OAT3, compound 0.3 μM): 96.4%; Uptake rate (OAT3; OAT3, compound 0.3 μM): 101±1.22 pmol/mg protein/min; Percentage transported (OAT3; OAT3, compound 1 μM): 103%; Uptake rate (OAT3; OAT3, compound 1 μM): 106±2.62 pmol/mg protein/min; Percentage transported (OAT3; OAT3, compound 3 μM): 97.5%; Uptake rate (OAT3; OAT3, compound 3 μM): 102±3.76 pmol/mg protein/min; Percentage transported (OAT3; OAT3, compound 10 μM): 101%; Uptake rate (OAT3; OAT3, compound 10 μM): 105±1.14 pmol/mg protein/min; Percentage transported (OAT3; OAT3, compound 30 μM): 52.3%; Uptake rate (OAT3; OAT3, compound 30 μM): 63.6±3.38 pmol/mg protein/min; Percentage transported (OAT3; OAT3, compound 100 μM): 27.3%; Uptake rate (OAT3; OAT3, compound 100 μM): 42.5±2.15 pmol/mg protein/min; inhibition at 2 min, 0.3 µM (OAT3; human, pH 7.4): 3.57%; inhibition at 2 min, 1 µM (OAT3; human, pH 7.4): -2.52%; inhibition at 2 min, 3 µM (OAT3; human, pH 7.4): 2.54%; inhibition at 2 min, 10 µM (OAT3; human, pH 7.4): -0.883%; inhibition at 2 min, 30 µM (OAT3; human, pH 7.4): 47.7%; inhibition at 2 min, 100 µM (OAT3; human, pH 7.4): 72.7%; calculated R value (OAT3) (OAT3; renal OATs): < 1.1; IC50 (P-gp): 22.9 µM; inhibition at 60 min, 0.5 µM (P-gp; human): -3.22%; inhibition at 60 min, 2 µM (P-gp; human): 1.75%; inhibition at 60 min, 5 µM (P-gp; human): 17%; inhibition at 60 min, 20 µM (P-gp; human): 46.5%; inhibition at 60 min, 40 µM (P-gp; human): 58.4%; inhibition at 60 min, 60 µM (P-gp; human): 75.9%; inhibition at 60 min, 80 µM (P-gp; human): 83.6%; inhibition at 60 min, 0.1 µM (BCRP): 28.5%; inhibition at 60 min, 0.5 µM (BCRP): 34.2%; inhibition at 60 min, 2 µM (BCRP): 21.3%; inhibition at 60 min, 5 µM (BCRP): 24.2%; inhibition at 60 min, 10 µM (BCRP): 43.6%; inhibition at 60 min, 40 µM (BCRP): 52.9%; inhibition at 60 min, 60 µM (BCRP): 66.4%; inhibition at 60 min, 80 µM (BCRP): 52%; CLint scaled at 1 µM ([1]; female, mouse, microsomes, pH 7.4, Predicted CL int, iv vivo): 3.17 L/h/kg; half-life at 1 µM ([1]; female, mouse, microsomes, pH 7.4, in vitro t1/2): 1.7 h; CLint scaled at 1 µM ([1]; male, mouse, microsomes, pH 7.4, Predicted CL int, iv vivo): 3.02 L/h/kg; half-life at 1 µM ([1]; male, mouse, microsomes, pH 7.4, in vitro t1/2): 1.8 h; half-life at 1 µM ([1]; pH 7.4, female mouse liver microsomes, FMO deactivation, read-out: in vitro t1/2): 1.72 h; CLint scaled at 1 µM ([1]; pH 7.4, female mouse liver microsomes, normal, read-out: Predicted CL int, iv vivo): 3.22 L/h/kg
